Reference: PubChem BioAssay (NCI)
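48-hour exposure; five concentrations; linearly interpolated endpoints. Abbreviation: GI50, concentration required for 50% inhibition of growth. TGI denotes the concentration required for complete inhibition of growth.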

Legend:
Assay in all cases: NCI anticancer screen, dose series, 48 h
[1] = test system: SK-MEL-5 melanoma
[2] = test system: BT-549 breast
[3] = test system: SW-620 colon
[4] = test system: OVCAR-8 ovarian
[5] = test system: SK-MEL-2 melanoma
[6] = test system: RXF 393 renal
[7] = test system: RPMI-8226 leukemia
[8] = test system: TK-10 renal
[9] = test system: OVCAR-4 ovarian
[10] = test system: HCC-2998 colon

Row | Structure (SMILES) | TGI [1] [µM] | TGI [2] [µM] | TGI [3] [µM] | TGI [4] [µM] | TGI [5] [µM] | TGI [6] [µM] | TGI [7] [µM] | TGI [8] [µM] | TGI [9] [µM] | TGI [10] [µM] | GI50 [1] [µM] | GI50 [3] [µM] | GI50 [4] [µM] | GI50 [5] [µM] | GI50 [6] [µM] | GI50 [7] [µM] | GI50 [10] [µM] | GI50 [8] [µM] | GI50 [9] [µM] | GI50 [2] [µM]
1 | CC1(C)CC(=O)C(C(c2cccc(O)c2O)C2C(=O)CC(C)(C)CC2=O)C(=O)C1 | > 100 | > 100 | > 100 | > 100 | > 100 | > 100 | > 100 | > 100 | > 100 |  |  |  |  |  |  |  |  |  |  | 
2 | O=c1cc2n(c(=O)[nH]1)C1OC(C(O)C1O)[C@H]2CCO (stereo partly specified) | > 100 |  | > 100 | > 100 | > 100 | > 100 |  | > 100 | > 100 |  |  |  |  |  |  |  |  |  |  | 
3 | O=C(c1ccccn1)c1nnn2ccccc12 | > 100 | > 100 | > 100 | > 100 | > 100 |  | > 100 | > 100 | > 100 | > 100 |  |  |  |  |  |  |  |  |  | 
4 | COc1ccc(/C=C2\N=C(c3ccccc3)N(c3cc(C(F)(F)F)ccc3Cl)C2=O)cc1OC | 54.9 |  | 46.2 | > 100 | 82.1 | 68.3 | 80.8 | > 100 | > 100 | > 100 | 25 | 20.5 | 50.8 | 31.9 | 33.5 | 25.8 | 65 | 93.6 | 39.2 | 
5 | O=C(CCc1nnc2s/c(=C\c3ccc4c(c3)OCO4)c(=O)n12)Nc1cc(Cl)ccc1Cl | > 100 |  | > 60.5 | > 100 | > 100 | > 100 | > 100 | > 100 | > 100 | > 100 |  |  |  |  |  |  |  |  |  | 
6 | O=C(c1ccccc1)c1ccc(Cl)c([N+](=O)[O-])c1 | 28.3 | 31.5 | 21.9 | 17.7 | 6.89 |  | 21.9 |  | 3.13 |  | 14.7 | 5.27 | 4.7 | 2.96 |  | 3.64 |  |  | 1.73 | 16.7
7 | Nc1nc(=O)n(C2CC(O)C(O)C(CO)O2)cc1F (stereo unspecified) |  |  | > 100 | > 100 | > 100 | > 100 | > 100 | > 100 | > 100 | > 100 |  |  |  |  |  |  |  |  |  | 
8 | C/C(=N\Nc1ccc2ccccc2n1)c1ccccc1O | > 100 | > 100 | > 100 | > 100 | > 100 | > 100 | > 100 | > 100 | > 100 |  |  |  |  |  |  |  |  |  |  | 
9 | CN(C)c1ccccc1CC(c1c[nH]c2ccccc12)c1c[nH]c2ccccc12 | 28.8 |  | 19.2 | 26.1 | 29.3 | 20.2 |  | 29.9 | 21.1 | 22.6 |  |  |  |  |  |  |  |  |  | 
10 | O=C(CC1(O)C(=O)Nc2c(Cl)cccc21)c1ccccc1 (stereo unspecified) | > 100 |  | > 100 | > 100 | > 100 | > 100 | > 100 | > 100 | > 100 | > 100 |  |  |  |  |  |  |  |  |  | 
11 | O=C1C(c2ccc([N+](=O)[O-])cc2)=[N+]([O-])c2ccccc21 | 31.5 |  | > 100 | 16.4 | > 100 | 60.4 | > 100 | 91.9 | 21.7 |  |  |  |  |  |  |  |  |  |  | 
12 | Cc1cc2cc(Cl)ccc2nc1C(=O)c1ccccc1 | > 100 |  | > 100 | > 100 | > 100 | > 100 | > 100 | > 100 | > 100 | > 100 |  |  |  |  |  |  |  |  |  | 
13 | COC(=O)CSc1ccccc1 | > 100 |  | > 100 | > 100 | 46.4 | > 100 | > 100 | > 100 | > 100 | > 100 |  |  |  |  |  |  |  |  |  | 
14 | CC1(C)Cc2cccc(OCC(O)CN3CCN(c4ccc(F)cc4)CC3)c2O1 (stereo unspecified) | 13.9 | 39.8 | > 50 | > 50 | > 50 | 22.6 | 26.2 | > 50 | > 50 |  | 6.99 | 14.3 | 18.2 | 27 | 8.33 | 9.18 |  | > 50 | 13.3 | 17.3
15 | O=c1c2cc(Br)ccc2[nH]c(=S)n1-c1ccc(Br)cc1 |  |  | > 100 | > 100 | > 100 | > 100 | > 100 | > 100 | > 100 | > 100 |  |  |  |  |  |  |  |  |  | 
16 | CN(C)c1ccc(/C=C/C(=O)c2ccccc2)cc1Br | 39.1 |  | 43.8 | 57.1 | 44.5 |  | 44.4 | 74.2 | 34.5 | 37.5 |  |  |  |  |  |  |  |  |  | 

Row | Structure (SMILES) | TGI [1] [µM] | TGI [2] [µM] | TGI [3] [µM] | TGI [4] [µM] | TGI [5] [µM] | TGI [6] [µM] | TGI [7] [µM] | TGI [8] [µM] | TGI [9] [µM] | TGI [10] [µM] | GI50 [1] [µM] | GI50 [3] [µM] | GI50 [4] [µM] | GI50 [5] [µM] | GI50 [6] [µM] | GI50 [7] [µM] | GI50 [10] [µM] | GI50 [8] [µM] | GI50 [9] [µM] | GI50 [2] [µM]
17 | COc1ccc(C(=O)C(c2ccc(OC)cc2)C2C(=O)Oc3ccccc32)cc1 (stereo unspecified) | > 100 |  | > 100 | > 100 | > 100 | > 100 | > 100 | > 100 | > 100 | > 100 | > 100 | > 100 | > 100 | > 100 | > 100 | > 100 | > 100 | > 100 | > 100 | 
18 | COc1ccc(CN2C(=O)C(Cc3cc(OC)c(OC)c(C)c3OC)N(C(=O)OC(C)C)C(=O)/C2=C/c2cc(OC)c(OC)c(C)c2OC)cc1 (stereo unspecified) | > 100 |  | > 100 | > 100 | > 100 | > 100 | > 100 | > 100 | > 100 | > 100 |  |  |  |  |  |  |  |  |  | 
19 | O=C(CCCCC(=O)N/N=C\c1ccccc1Cl)N/N=C\c1ccccc1Cl | > 100 |  |  | 30.6 | 33.9 | 32.7 | > 100 | 25.8 | > 100 |  | 3.94 |  | 0.515 | 12.5 | 11 | 0.723 |  | 4.68 | 7.55 | 
20 | COc1cc(-c2cc(/C=C/C(=O)c3ccc4c(c3)OCO4)[nH]n2)cc(OC)c1OC | > 100 |  |  | 11.1 | 28.9 | 2.87 | 2.94 | 5.73 | > 100 | 3.54 | 4.51 |  | 2.85 | 10.3 | 1.48 | 0.51 | 1.95 | 2.33 | 3.8 | 
21 | O=C(O)CN(CC(=O)O)Cc1cc2c(cc1O)Oc1cc(O)c(CN(CC(=O)O)CC(=O)O)cc1C21OC(=O)c2ccccc21 | > 100 | > 100 | > 100 | > 100 | > 100 |  | > 100 | > 100 | > 100 | > 100 |  |  |  |  |  |  |  |  |  | 
22 | CCOC(=O)C1c2[nH]c3ccccc3c2CCN1C(=O)c1ccco1 (stereo unspecified) | > 10 | > 10 | > 10 | > 10 |  |  | > 10 | > 10 | > 10 | > 10 |  |  |  |  |  |  |  |  |  | 
23 | O=c1oc2c3ccc4ccccc4c3n(CCN3CCOCC3)c2c2ccccc12 |  |  | > 100 | > 100 |  |  | > 100 | > 100 | > 100 | > 100 |  |  |  |  |  |  |  |  |  | 
24 | COc1ccc2nc3cc(Cl)ccc3c(NCCC(=O)OCC(O)C(O)C(O[C@H](C)C(=O)NC(C)C(=O)NC(CCC(N)=O)C(=O)OCc3ccccc3)C(C=O)NC(C)=O)c2c1 (stereo partly specified) | 30.2 |  | 30.9 | 30.5 | 41.8 |  |  | 46.2 | 34.3 | 33.6 |  |  |  |  |  |  |  |  |  | 
25 | O=C1OC(c2ccccc2)C2CC3CC4(CCC3CN12)OCCO4 (stereo unspecified) | > 100 |  | > 100 | > 100 | > 100 | > 100 | > 100 | > 100 | > 100 |  |  |  |  |  |  |  |  |  |  | 
26 | COC(=O)CCC(=O)CC(=O)C(=O)Nc1ccc(F)cc1 | > 100 |  | > 100 | > 100 | > 100 | > 100 | > 100 | > 100 | > 100 | > 100 |  |  |  |  |  |  |  |  |  | 
27 | N#Cc1ccc(/C=N\N2C(=O)c3ccccc3C2=O)cc1 | > 100 |  | > 100 | > 100 | > 100 | > 100 | > 100 | > 100 | > 100 | > 100 |  |  |  |  |  |  |  |  |  | 
28 | Cc1ccccc1N=Cc1ccc(N(CCC#N)S(=O)(=O)c2ccccc2)cc1 | > 100 |  | > 100 | > 100 | > 100 | > 100 | > 100 | > 100 | > 100 | > 100 |  |  |  |  |  |  |  |  |  | 
29 | COCC1C(=O)c2cc3c(cc2C12C=CC1(C=C2)OCCO1)OCO3 (stereo unspecified) |  |  | 8.76 | 13.1 | 24.5 | 20.9 | 4.1 | 34.9 | 27.4 |  |  |  |  |  |  |  |  |  |  | 
30 | O=C(O)CNC(=O)c1ccccc1O | > 100 | > 100 | > 100 | > 100 | > 100 | > 100 | > 100 | > 100 | > 100 |  |  |  |  |  |  |  |  |  |  | 
31 | CCOC(=O)NC(=O)c1cn(CCCCCOC(=O)NCCCCCCNC(=O)OCCCCCn2cc(C(=O)NC(=O)OCC)c(=O)[nH]c2=O)c(=O)[nH]c1=O | > 100 |  | > 100 | > 100 | > 100 | > 100 | > 100 |  | > 100 | > 100 |  |  |  |  |  |  |  |  |  | 
